Assays:
Assay type in all cases: cell-based
FOXM1 and CCNB1 genes = assay: Expression of FOXM1 and CCNB1 genes in bladder cancer cell lines treated with doxorubicin; conditions: invasive cell lines (5637, EJ); doxorubicin 0 to 50 μM for 12 hours or 24 hours; FIG. 9B
Procedure: (§1) Further, the inventors of the present disclosure studied expression of FOXM1, CCNB1 genes, and FANCB, FANCC, and FANCD2 genes relevant to Fanconi anemia pathways after non-muscle invasive cell lines (UC5, UC9) and invasive cell lines (5637, EJ) were treated with doxorubicin used as an anticancer drug for bladder cancer at a concentration of 0 to 50 μM for 12 hours or 24 hours.

[1] = test system: FANCB, FANCC, and FANCD2 genes; assay: Expression of DNA repair genes in bladder cancer cell lines treated with doxorubicin; conditions: non-muscle invasive cell lines (UC5, UC9) and invasive cell lines (5637, EJ); doxorubicin 0 to 50 μM for 12 hours or 24 hours; FIG. 9C
Procedure: as §1
Furthermore, in the non-muscle invasive cell lines (UC5, UC9) and invasive cell lines (5637, EJ) treated as described above, expression of the genes relevant to DNA repair was checked.

[2] = test system: invasive cell lines (5637, EJ); assay: Cell viability of bladder cancer cell lines treated with doxorubicin; conditions: invasive cell lines (5637, EJ) compared with non-muscle invasive cell lines (UC5, UC9); doxorubicin 0 to 50 μM for 12 hours or 24 hours; FIG. 9A

COc1cccc2c1C(=O)c1c(O)c3c(c(O)c1C2=O)C[C@@](O)(C(=O)CO)C[C@@H]3O[C@H]1C[C@H](N)[C@H](O)[C@H](C)O1 [doxorubicin]
high: expression of FOXM1 and CCNB1 genes (FOXM1 and CCNB1 genes) | expression of the FANCB, FANCC, and FANCD2 genes relevant to Fanconi anemia pathways [1] | cell viability [2]

Reference: patent US20150275313A1, “MARKER FOR DIAGNOSIS OF BLADDER CANCER RECURRENCE” (Dong-A University Research Foundation For Industry-Academy …, priority 2014, published 2015)
